Values joined by “and” are separate entries in the source; they are usually repeats but may differ in a detail not shown here. Identical values can stand only once.
Tests used:
[1] = test system: DMBA-induced mammary tumors of rats; assay: Effect on DMBA-induced breast tumors in repeated treatment courses; assay type: in vivo
Excerpt: (§1) For the study of the antitumor activity of the compounds according to the present invention use was made of regrafted hemoblastoses, grafted solid tumors, induced and spontaneous tumors of mice and rats. The following models were used: L 1210, P-388, hemocytoblastosis La, MOPC-406, viral lympholeukosis Mazurenko LMC-1, Ca-755, mammary carcinoma metastasizing into lungs KML, alveolar mammary cancer RMK-1, small intenstine adenocarcinoma AKATON, large intestine adenocarcinoma AKATOL, Lewis lung carcinoma LL, lung adenocarcinoma RL-67, hepatomae G-22c, G-60, G-61, sarcomae S-37 and S-180, DMBA (dimethylbenzanthracene)-induced and spontaneous mammary tumors, and […] (dimethylhydrazine)-induced tumors of the large intestine.
(§2) The compounds were administered to the animals hypodermally in kernel oil. For the purpose of comparison, a known hormonocytostatic estracyte (estra-1,3,5-(10)treine-3,17β-diol-3N-[bis-(2-chloroethyl)carbamate-17-sodium phosphate] was used which was administered hypodermally in a solution of a 0.9% NaCl, chlorphenacyl and chloroambucyl which were administered intraperitoneally in a 10% solution of ethanol, sarcolysine (β-[p-di(2-chloroethyl)aminophenyl]-α-alanine hydrochloride)--intraperitoneally in a 0.9% solution of NaCl, prednisolone (pregnadiene-1,4-triol-11β,17α,21-dione-3,20)--per os in a starch size.
(§3) Criteria of the antitumor activity of the compounds according to the present invention are: extension of the lifespan of the animals (ELA, %) and tumor growth inhibition (TGI, %). [formula] T--average lifespan of the treated animals; C--average lifespan of the control animals. [formula] O--average tumor volume in the group of treated animals; K--average tumor volume in the group of control animals.
(§4) In the case of using spontaneous or induced tumors, by means of carcinogenic substances, the criteria of the antitumor effect are: TGI, % or decrease in the tumor size, %, as compared to its initial value. The treatment of spontaneous and induced tumors was initiated after achieving, by these tumors, of a particular size excluding the possibility of a spontaneous regression.

Ca-755 = assay: Antitumor effect on grafted solid tumor Ca-755; assay type: in vivo, mice and rats; conditions: in vivo
mice = conditions: mouse, in vivo
[2] = test system: Spontaneous mammary tumors of mice; assay: Effect on spontaneous breast tumors in repeated treatment courses; assay type: in vivo
Excerpt: as §1, §2, §3, §4

S-180 = test system: S-180; design: species or system mice and rats; conditions: in vivo
[3] = test system: DNA of sarcoma S-37 cells; assay: Cross-linking and ruptures in DNA of tumoral cells (alkaline saccharose gradient sedimentation)
Hepatoma G-22c = assay: Antitumor effect on grafted hepatoma G-22c; assay type: in vivo, mice and rats; conditions: in vivo
[4] = test system: receptors of glucocorticoids in grafted tumors of animals (RL-67, G-60, G-61, G-22c, Ca-755, S-37, AKATOL, AKATON); assay: Inhibition of specific combining of [^3 H]-dexamethazone in grafted tumors of animals; assay type: binding
Excerpt: The inhibition, thereby, of a specific combining of [^3 H]-dexamethazone in tumors of animals reaches 70-100%. 11-Desoxy-17-α-hydroxy-21-[p-di(2-chloroethyl)aminophenylacetate] corticosterone also reacts with cytoplasmatic receptors of glucocorticoids in tumors in human beings.

[5] = compared to the size prior to the treatment

## C[C@]12CCC(=O)C=C1CC[C@@H]1[C@@H]2CC[C@@]2(C)[C@H]1CC[C@]2(O)C(=O)COC(=O)Cc1ccc(N(CCCl)CCCl)cc1 [11-desoxy-17α-hydroxy-21-[p-di(2-chloroethyl)-aminophenylacetate] corticosterone]
[1]; DMBA-induced, rats, 15 mg/kg/24 h × 5, 2 courses, 5 weeks interval
  Increased lifespan: 18%
[1]; DMBA-induced, rats, 15 mg/kg/24 h × 5, 2 courses, 5 weeks interval, week 1
  Decrease or increase (+) of the tumor, % of the initial one: 33%
[1]; DMBA-induced, rats, 15 mg/kg/24 h × 5, 2 courses, 5 weeks interval, week 2
  Decrease or increase (+) of the tumor, % of the initial one: 32%
[1]; DMBA-induced, rats, 15 mg/kg/24 h × 5, 2 courses, 5 weeks interval, week 3
  Decrease or increase (+) of the tumor, % of the initial one: 11%
[1]; DMBA-induced, rats, 15 mg/kg/24 h × 5, 2 courses, 5 weeks interval, week 4
  Decrease or increase (+) of the tumor, % of the initial one: 24%
[1]; DMBA-induced, rats, 15 mg/kg/24 h × 5, 2 courses, 5 weeks interval, week 5
  Decrease or increase (+) of the tumor, % of the initial one: +26%
[1]; DMBA-induced, rats, 15 mg/kg/24 h × 5, 2 courses, 5 weeks interval, week 6
  Decrease or increase (+) of the tumor, % of the initial one: 23%
[1]; DMBA-induced, rats, 15 mg/kg/24 h × 5, 2 courses, 5 weeks interval, week 7
  Decrease or increase (+) of the tumor, % of the initial one: +3%
[1]; DMBA-induced, rats, 15 mg/kg/24 h × 5, 2 courses, 5 weeks interval, week 8
  Decrease or increase (+) of the tumor, % of the initial one: 13%
[1]; [5]
  reduction in size of induced tumors in breasts: causes reduction in size of induced and spontaneous tumors
Ca-755
  Extension of the lifespan: 73%
  Maximum tumor growth inhibition: 99%
  Tumor growth inhibition: 92% and 73% and 82%
Ca-755; 45 mg/kg
  Maximum tumor growth inhibition: 94%
mice
  toxicity lower than that of chlorophenacyl: 3 times
[2]; Table 4
  activity in repeated treatment courses: reveals activity in repeated treatment courses
[2]; [5]
  reduction in size of spontaneous tumors in breasts: causes reduction in size of induced and spontaneous tumors
[2]; spontaneous, mice, 15 mg/kg/24 h × 5, 2 courses, 3 weeks interval
  Increased lifespan: 11%
[2]; spontaneous, mice, 15 mg/kg/24 h × 5, 2 courses, 3 weeks interval, week 1
  Decrease or increase (+) of the tumor, % of the initial one: 23%
[2]; spontaneous, mice, 15 mg/kg/24 h × 5, 2 courses, 3 weeks interval, week 2
  Decrease or increase (+) of the tumor, % of the initial one: 37%
[2]; spontaneous, mice, 15 mg/kg/24 h × 5, 2 courses, 3 weeks interval, week 3
  Decrease or increase (+) of the tumor, % of the initial one: +7%
[2]; spontaneous, mice, 15 mg/kg/24 h × 5, 2 courses, 3 weeks interval, week 4
  Decrease or increase (+) of the tumor, % of the initial one: 64%
[2]; spontaneous, mice, 15 mg/kg/24 h × 5, 2 courses, 3 weeks interval, week 5
  Decrease or increase (+) of the tumor, % of the initial one: 20%
[2]; spontaneous, mice, 15 mg/kg/24 h × 5, 2 courses, 3 weeks interval, week 6
  Decrease or increase (+) of the tumor, % of the initial one: 50%
[2]; spontaneous, mice, 15 mg/kg/24 h × 5, 2 courses, 3 weeks interval, week 7
  Decrease or increase (+) of the tumor, % of the initial one: 25%
[2]; spontaneous, mice, 15 mg/kg/24 h × 5, 2 courses, 3 weeks interval, week 8
  Decrease or increase (+) of the tumor, % of the initial one: 16%
S-180
  Maximum tumor growth inhibition: 93% and 92%
[3]
  number and duration of retention of cross-linking in DNA molecules of S-37 cells: superior to chlorophenacyl
Hepatoma G-22c
  Extension of the lifespan: 65%
  Maximum tumor growth inhibition: 80%
  Tumor growth inhibition: 80% and 68% and 57%
[4]; RL-67, G-60, G-61, G-22c, Ca-755, S-37, AKATOL, AKATON
  reaction with receptors of glucocorticoids in grafted tumors: reacts with receptors of glucocorticoids in grafted tumors of animals
[4]; tumors of animals
  inhibition of specific combining of [^3 H]-dexamethazone: 70-100%

From patent publication US4933332A, “11-desoxy-17-α-hydroxycorticosterone derivatives” (priority 1988, dated 1990)
